The target of the experiment is abnormal prion protein (Mus musculus, UniProt P04925). The experiment in a line: cell-based.

Where a name gives a salt, the structure may show the parent alone.

Chain of abnormal prion protein (P04925 23-230 limits assumed): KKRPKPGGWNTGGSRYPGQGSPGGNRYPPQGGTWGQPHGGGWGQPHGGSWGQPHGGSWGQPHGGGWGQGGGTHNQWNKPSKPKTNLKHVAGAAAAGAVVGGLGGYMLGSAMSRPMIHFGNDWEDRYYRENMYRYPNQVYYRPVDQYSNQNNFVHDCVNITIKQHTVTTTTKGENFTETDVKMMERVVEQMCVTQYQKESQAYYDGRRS

One may read the IC50 as the point on the concentration scale where inhibition reaches its midpoint. With `O=C(CN1CCCC1)Nc1ccc(C(c2ccc(NC(=O)CN3CCCC3)cc2)C2CCCCC2)cc1` [maleic acid salt, N,N′-[(cyclohexylmethylene)di-4,1-phenylene]bis[2-(1-pyrrolidinyl)acetamide] maleate], the IC50 stood at 460 ± 200 nM.

Values taken from US9809563B2 (GIFU University, priority 2014, dated 2017).
